Patent US20110262564A1, “Treatment of Cancer with Selenium Nanoparticles” (priority 2010, published 2011)

Experiments:
[1] = system: androgen-dependent LNCaP cells; assay: CCK-8 cell viability assay, LNCaP; type: cell-based, human; details: 0-100 μM, 24 and 48 hours
Protocol: (§1) To determine the cell viability effect of nano-Se in human prostate cancer cells, androgen-dependent LNCaP cells and androgen-independent DU145 cells were treated with 0, 1, 5, 10, 50 and 100 μM of Nano-Se particle suspensions for 24 and 48 hrs respectively.
(§2) LNCaP (Lot#1735217), and DU-145 (Lot#1145858) human prostate cancer cell lines were purchased from the American Type Culture Collection (ATCC, Manassas, Va., USA). Cells were maintained in 1640 culture medium (Invitrogen Life Technologies, USA) supplemented with 10% (v/v) fetal bovine serum and antibiotics.
For cell viability assay, cells were seeded into 96-well plates at a density of 1×10^4 cells/well, and 40-50% confluent cells were subsequently treated with nano-Se nanoparticles (1 to 100 μM) or distilled water for 24 or 48 hrs respectively. Treated cells were then collected and measured by Cell Counting Kit-8 (CCK-8) system (Dojindo Laboratory, Kumamoto, Japan). Briefly, CCK-8 solution (10 μl per 100 ul of medium in each well) was added, the plates were then incubated at 37° C. for 1 hour, and the absorbance of each well was read at 450 nm using a microplate reader. Values were shown as means±SE of quadruplicated determinations of a representative experiment (repeated three times). Differences between groups were analyzed using Student's test with significance assumed at p<0.05. […]

[2] = system: androgen-independent DU145 cells; assay: CCK-8 cell viability assay, DU145; type: cell-based, human
Protocol: as §1, §2
(§3) For cell viability assay, cells were seeded into 96-well plates at a density of 1×10^4 cells/well, and 40-50% confluent cells were subsequently treated with nano-Se nanoparticles (1 to 100 μM) or distilled water for 24 or 48 hrs respectively. Treated cells were then collected and measured by Cell Counting Kit-8 (CCK-8) system (Dojindo Laboratory, Kumamoto, Japan). Briefly, CCK-8 solution (10 μl per 100 ul of medium in each well) was added, the plates were then incubated at 37° C. for 1 hour, and the absorbance of each well was read at 450 nm using a microplate reader. Values were shown as means±SE of quadruplicated determinations of a representative experiment (repeated three times). Differences between groups were analyzed using Student's test with significance assumed at p<0.05. All statistical analyses were performed using Origin75 software.
Cells were treated with 0-100 μM nano-Se nanoparticles or MSA for 24 and 48 hours. Cells were then collected and cell viabilities were assayed. The data shown are mean±standard of three samples for each treatment. Differences between groups were analyzed using Student's test with significance assumed at p<0.05.

[3] = system: human breast cancer cell line MCF-7 cells; assay: Cell viability assay, MCF-7; type: cell-based
Protocol: as §3
(§4) In reference to FIGS. 3A and 3B, 4A and 4B, 5A and 5B, 6A and 6B, the effects of nano-Se nanoparticles on cell viability are compared to that of MSA in androgen dependent prostate cancer line LNCaP cells, androgen independent prostate cancer line DU145 cells, human breast cancer cell line MCF-7 cells, human lung carcinoma cell line A549 cells.
(§5) Cells were treated with 0-100 μM nano-Se nanoparticles or MSA for 24 and 48 hours. […] Differences between groups were analyzed using Student's test with significance assumed at p<0.05.

[4] = system: human lung carcinoma cell line A549 cells; assay: Cell viability assay, A549; type: cell-based
Protocol: as §3, §4, §5

[5] = molecular target: T1, androgen receptor (Homo sapiens, UniProt P10275); assay: MMTV-luc androgen receptor luciferase reporter assay in HEK293; type: cell-based; details: MMTV promoter construct, HEK293, 10 nM
T1 construct: the full length human wild type androgen receptor cDNA expression plasmid pAR0; expressed in transfected cells; host or cells: HEK293
T1 sequence (P10275 1-920): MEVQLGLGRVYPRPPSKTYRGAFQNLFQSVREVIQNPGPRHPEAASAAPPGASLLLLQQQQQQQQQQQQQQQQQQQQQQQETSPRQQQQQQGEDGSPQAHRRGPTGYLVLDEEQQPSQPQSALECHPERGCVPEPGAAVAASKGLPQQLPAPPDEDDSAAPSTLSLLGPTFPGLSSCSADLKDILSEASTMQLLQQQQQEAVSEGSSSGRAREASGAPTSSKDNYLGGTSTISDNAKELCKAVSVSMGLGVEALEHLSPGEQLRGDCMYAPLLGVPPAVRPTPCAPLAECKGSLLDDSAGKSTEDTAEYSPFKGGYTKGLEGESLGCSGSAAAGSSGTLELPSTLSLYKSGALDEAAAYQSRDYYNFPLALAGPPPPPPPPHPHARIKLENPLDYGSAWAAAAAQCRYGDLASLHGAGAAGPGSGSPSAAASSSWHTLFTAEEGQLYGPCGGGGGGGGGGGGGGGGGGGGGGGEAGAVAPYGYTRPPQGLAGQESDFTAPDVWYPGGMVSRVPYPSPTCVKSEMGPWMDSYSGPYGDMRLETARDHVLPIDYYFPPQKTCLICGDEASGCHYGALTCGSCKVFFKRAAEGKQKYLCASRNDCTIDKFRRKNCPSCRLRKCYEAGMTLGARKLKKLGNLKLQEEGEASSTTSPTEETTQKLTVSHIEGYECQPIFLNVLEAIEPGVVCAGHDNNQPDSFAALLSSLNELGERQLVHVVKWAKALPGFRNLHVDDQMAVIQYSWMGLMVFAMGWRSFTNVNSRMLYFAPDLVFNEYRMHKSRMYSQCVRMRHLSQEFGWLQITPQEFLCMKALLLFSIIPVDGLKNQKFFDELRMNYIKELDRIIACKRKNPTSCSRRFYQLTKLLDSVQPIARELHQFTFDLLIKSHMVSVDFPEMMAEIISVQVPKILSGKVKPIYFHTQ
Protocol: (§6) Both MMTV-luc and pGL3-PSA-luc plasmids contain Androgen Receptor binding site which recruits androgen receptor and its co-activator to recruit RNA Pol II to the promoter region.
(§7) Cells were then lysed and assayed for luciferase activity using Dual-Luciferase® Reporter Assay System (Promega, Madison, Wis., USA), the experiment was performed in triplicate and repeated at least four times.

[6] = molecular target: T1, androgen receptor; assay: pGL3-PSA-luc androgen receptor luciferase reporter assay in HEK293; type: cell-based; details: PSA promoter construct, HEK293, 10 nM
Protocol: as §6, §7

Row | Compound | effect on cell viability [1] | effect on cell viability ([2]; DU145, 0-100 μM, 24 and 48 hours, dose and time-dependent) | effect on cell viability, MSA versus nano-Se ([2]; DU145, 24 hour treatment, all measured concentrations) | effect on cell viability, nano-Se versus MSA ([2]; DU145, 48 hour treatment) | effect on cell viability ([3]; MCF-7, 0-100 μM, 24 and 48 hours, dose and time-dependent) | potency in decreasing cell viability, MSA versus nano-Se ([3]; MCF-7, 24 and 48 hours) | effect on cell viability ([4]; A549, 0-100 μM, 24 and 48 hours, dose and time-dependent) | potency in decreasing cell viability, MSA versus nano-Se ([4]; A549, 24 and 48 hours) | androgen receptor dependent promoter activity (luciferase) [5] | androgen receptor dependent promoter activity (luciferase) [6]
1 | C[Se](=O)O [MSA, Methylseleninic acid] | decreased cell viability | decreased cell viability | more significant | comparable | decreased cell viability | more potent in decreasing cell viability | decreased cell viability | more potent in decreasing cell viability | – | –
2 | C[C@]1(O)CC[C@H]2[C@@H]3CCC4=CC(=O)CCC4=C3C=C[C@@]21C [R1881] | – | – | – | – | – | – | – | – | induced androgen receptor dependent promoter activity | induced androgen receptor dependent promoter activity
